In patent publication US10689414B2 (Agios Pharmaceuticals, Inc., priority 2013, dated 2020) one finds IC50 data, which are given here for 23 molecules.

pIC50: −log10 of the molar value.

As usually defined, the pIC50 is the negative decadic logarithm of the IC50, by convention in mol/L. A low value points to a high IC50.

In the experiment the test system is U87MG cells. As to the kind of experiment: Cellular assay, inhibition of 2-HG production in U87MG cells. The class given is cell-based. To be noted: Homo sapiens, U-87 MG, 48 h. Put shortly:
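HT1080 or U87MG cells (U87MG kept with 500 ug/mL G418) seeded at 5000 cells/well and treated with compound at 0.2% final DMSO. Incubated 48 h at 37 °C. 2-HG inhibition determined by LC-MS. Viability read by CellTiter-Glo luminescence at 72 h post-dose.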
Consider `N#Cc1ccnc(N2C(=O)OCC[C@H]2C(=O)N(c2cc(F)cc(F)c2)[C@H](C(=O)NC2CCC(F)(F)CC2)c2ccccc2Cl)n1` [Compound 144, (S)—N—((S)-1-(2-Chlorophenyl)-2-((4,4-difluorocyclohexyl)amino)-2-oxoethyl)-3-(4-cyanopyrimidin-2-yl)-N-(3,5-difluorophenyl)-2-oxo-1,3-oxazinane-4-carboxamide], for which the pIC50 was greater than 7.00.
`N#Cc1ccnc(N2C(=O)CC[C@H]2C(=O)N(c2cc(F)cc(F)c2)[C@H](C(=O)NC2CCC(F)(F)CC2)c2ccccc2Cl)n1` [Compound 87, (S)—N—((S)-1-(2-Chlorophenyl)-2-((4,4-difluorocyclohexyl)amino)-2-oxoethyl)-1-(4-cyanopyrimidin-2-yl)-N-(3,5-difluorophenyl)-5-oxopyrrolidine-2-carboxamide]: the pIC50 is greater than 7.00.
The molecule `N#Cc1ccnc(N2C(=O)CC[C@H]2C(=O)N(c2cc(F)cc(F)c2)[C@H](C(=O)NC2CC(F)(F)C2)c2ccccc2Cl)c1` [Compound 71, (S)—N—((S)-1-(2-Chlorophenyl)-2-((3,3-difluorocyclobutyl)amino)-2-oxoethyl)-1-(4-cyanopyridin-2-yl)-N-(3,5-difluorophenyl)-5-oxopyrrolidine-2-carboxamide] gave a pIC50 greater than 7.00.
Molecule `N#Cc1cccc(N(C(=O)[C@@H]2CCC(=O)N2c2nccc(C#N)n2)[C@H](C(=O)NC2CC(F)(F)C2)c2ccccc2Cl)c1` [Compound 167, (S)—N—((S)-1-(2-Chlorophenyl)-2-((3,3-difluorocyclobutyl)amino)-2-oxoethyl)-N-(3-cyanophenyl)-1-(4-cyanopyrimidin-2-yl)-5-oxopyrrolidine-2-carboxamide] showed a pIC50 greater than 7.00.
For `N#Cc1ccnc(N2C(=O)CC[C@H]2C(=O)N(c2cc(F)cc(F)c2)[C@H](C(=O)NC2CC(F)(F)C2)c2ncccc2Cl)c1` [Compound 198, (S)—N—((S)-1-(3-Chloropyridin-2-yl)-2-(3,3-difluorocyclobutylamino)-2-oxoethyl)-1-(4-cyanopyridin-2-yl)-N-(3,5-difluorophenyl)-5-oxopyrrolidine-2-carboxamide], the pIC50 was greater than 7.00.
`N#Cc1ccnc(N2C(=O)CC[C@H]2C(=O)N(c2cc(F)ccc2F)[C@H](C(=O)NC2CC(F)(F)C2)c2ccccc2Cl)c1` [Compound 197, (S)—N—((S)-1-(2-Chlorophenyl)-2-((3,3-difluorocyclobutyl)amino)-2-oxoethyl)-1-(4-cyanopyridin-2-yl)-N-(2,5-difluorophenyl)-5-oxopyrrolidine-2-carboxamide] gave a pIC50 greater than 7.00.
For the molecule `N#Cc1ccnc(N2C(=O)CC[C@H]2C(=O)N(c2cccc(F)c2)[C@H](C(=O)NC2CCC(F)(F)CC2)c2ccccc2Cl)c1F` [Compound 83, (S)—N—((S)-1-(2-Chlorophenyl)-2-((4,4-difluorocyclohexyl)amino)-2-oxoethyl)-1-(4-cyano-3-fluoropyridin-2-yl)-N-(3-fluorophenyl)-5-oxopyrrolidine-2-carboxamide], the pIC50 is greater than 7.00.
The figure for `CC(C)(C)OC(=O)N1CC(=O)N(c2cc(C#N)ccn2)[C@H](C(=O)N(c2cccc(F)c2)[C@H](C(=O)NC2CC(F)(F)C2)c2ccccc2Cl)C1` [Compound 89, (3S)-tert-Butyl 3-((1-(2-chlorophenyl)-2-((3,3-difluorocyclobutyl)amino)-2-oxoethyl)(3-fluorophenyl)carbamoyl)-4-(4-cyanopyridin-2-yl)-5-oxopiperazine-1-carboxylate] is greater than 7.00; for `N#Cc1ccnc(N2C(=O)CC[C@H]2C(=O)N(c2cc(F)cc(C3CC3)c2)[C@H](C(=O)NC2CCC(F)(F)CC2)c2ccccc2Cl)c1` [Compound 202, (S)—N—((S)-1-(2-Chlorophenyl)-2-((4,4-difluorocyclohexyl)amino)-2-oxoethyl)-1-(4-cyanopyridin-2-yl)-N-(3-cyclopropyl-5-fluorophenyl)-5-oxopyrrolidine-2-carboxamide] it is greater than 7.00.
The molecule `CC(C)(O)c1cc(F)cc(N(C(=O)[C@@H]2COC(=O)N2c2cc(C#N)ccn2)C(C(=O)NC2CC(F)(F)C2)c2ccccc2Cl)c1` (mixture of isomers) [Compound 145, (4S)—N-(1-(2-Chlorophenyl)-2-(3,3-difluorocyclobutylamino)-2-oxoethyl)-3-(4-cyanopyridin-2-yl)-N-(3-fluoro-5-(2-hydroxypropan-2-yl)phenyl)-2-oxooxazolidine-4-carboxamide] had a pIC50 greater than 7.00.
In turn, `N#Cc1ccnc(N2C(=O)CC[C@H]2C(=O)N(c2cccc(F)c2F)[C@H](C(=O)NC2CC(F)(F)C2)c2ccccc2Cl)c1` [Compound 188, (S)—N—((S)-1-(2-Chlorophenyl)-2-((3,3-difluorocyclobutyl)amino)-2-oxoethyl)-1-(4-cyanopyridin-2-yl)-N-(2,3-difluorophenyl)-5-oxopyrrolidine-2-carboxamide] had a pIC50 greater than 7.00.
With `N#Cc1cc(F)cc(N(C(=O)[C@@H]2CCC(=O)N2c2cc(C#N)ccn2)[C@H](C(=O)NC2CC(F)(F)C2)c2ccccc2F)c1` [Compound 207, (S)—N-(3-Cyano-5-fluorophenyl)-1-(4-cyanopyridin-2-yl)-N—((S)-2-((3,3-difluorocyclobutyl)amino)-1-(2-fluorophenyl)-2-oxoethyl)-5-oxopyrrolidine-2-carboxamide], the pIC50 was greater than 7.00.
As for `CC(C)(O)c1cc(F)cc(N(C(=O)[C@@H]2CCOC(=O)N2c2cc(C#N)ccn2)[C@H](C(=O)NC2CC(F)(F)C2)c2ccccc2Cl)c1` [Compound 146, (S)—N—((S)-1-(2-Chlorophenyl)-2-(3,3-difluorocyclobutylamino)-2-oxoethyl)-3-(4-cyanopyridin-2-yl)-N-(3-fluoro-5-(2-hydroxypropan-2-yl)phenyl)-2-oxo-1,3-oxazinane-4-carboxamide], the pIC50 is greater than 7.00.
Molecule `N#Cc1cccnc1N1C(=O)CC[C@H]1C(=O)N(c1cccc(F)c1)[C@H](C(=O)NC1CC(F)(F)C1)c1ccccc1Cl` [Compound 69, (S)—N—((S)-1-(2-Chlorophenyl)-2-((3,3-difluorocyclobutyl)amino)-2-oxoethyl)-1-(3-cyanopyri-din-2-yl)-N-(3-fluorophenyl)-5-oxopyrrolidine-2-carboxamide] had a pIC50 greater than 7.00.
Consider `N#Cc1ccnc(N2C(=O)CC[C@H]2C(=O)N(c2cccc(CCO)c2)[C@H](C(=O)NC2CC(F)(F)C2)c2ccccc2Cl)c1` [Compound 160, (S)—N—((S)-1-(2-Chlorophenyl)-2-((3,3-difluorocyclobutyl)amino)-2-oxoethyl)-1-(4-cyanopyri-din-2-yl)-N-(3-(2-hydroxyethyl)phenyl)-5-oxopyrrolidine-2-carboxamide], for which the pIC50 is greater than 7.00.
The same measure for `[2H]c1c([2H])c([2H])c([C@@H](C(=O)NC2CC(F)(F)C2)N(C(=O)[C@@H]2CCC(=O)N2c2cc(C#N)ccn2)c2cc(F)cc(F)c2)c(Cl)c1[2H]` [Compound 163]: greater than 7.00; for `CC(C)(O)c1cccc(N(C(=O)[C@@H]2CCC(=O)N2c2cc(C#N)ccn2)[C@H](C(=O)NC2CC(F)(F)C2)c2ccccc2Cl)c1` [Compound 179, (S)—N—((S)-1-(2C)-2-((3,3-difluorocyclobutyl)amino)-2-oxoethyl)-1-(4-cyanopyridin-2-yl)-N-(3-(2-hydroxypropan-2-yl)phenyl)-5-oxopyrrolidine-2-carboxamide]: greater than 7.00.
The figure for `N#Cc1ccnc(N2C(=O)OCC[C@H]2C(=O)N(c2cccc(F)c2)C(C(=O)NC2CC(F)(F)C2)c2ccccc2Cl)c1` (mixture of isomers) [Compound 90, (4S)—N-(1-(2-Chlorophenyl)-2-(3,3-difluorocyclobutylamino)-2-oxoethyl)-3-(4-cyanopyridin-2-yl)-N-(3-fluorophenyl)-2-oxo-1,3-oxazinane-4-carboxamide] is greater than 7.00; for `N#Cc1ccnc(N2C(=O)[C@H](O)C[C@H]2C(=O)N(c2cc(F)cc(F)c2)[C@@H](C(=O)NC2CCC(F)(F)CC2)c2ccccc2Cl)c1` [Compound 124, (2S,4R)—N—((R)-1-(2-Chlorophenyl)-2-(4,4-difluorocyclohexylamino)-2-oxoethyl)-1-(4-cyanopyridin-2-yl)-N-(3,5-difluorophenyl)-4-hydroxy-5-oxopyrrolidine-2-carboxamide] it is greater than 7.00.
`N#Cc1ccnc(N2C(=O)CC[C@H]2C(=O)N(c2cccc(F)c2)[C@H](C(=O)NC2CC(F)(F)C2)c2ccccc2F)c1` [Compound 149, (S)-1-(4-Cyanopyridin-2-yl)-N—((S)-2-((3,3-difluorocyclobutyl)amino)-1-(2-fluorophenyl)-2-oxoethyl)-N-(3-fluorophenyl)-5-oxopyrrolidine-2-carboxamide] had a pIC50 greater than 7.00.
On to `N#Cc1ccnc(N2C(=O)CCC[C@H]2C(=O)N(c2cccc(F)c2)[C@H](C(=O)NC2CC(F)(F)C2)c2ccccc2Cl)c1` [Compound 55, (S)—N—((S)-1-(2-Chlorophenyl)-2-(3,3-difluorocyclobutylamino)-2-oxoethyl)-1-(4-cyanopyri-din-2-yl)-N-(3-fluorophenyl)-6-oxopiperidine-2-carboxamide], for which the pIC50 was greater than 7.00.
`C[S@+]([O-])c1cc(F)cc(N(C(=O)[C@@H]2CCC(=O)N2c2cc(C#N)ccn2)[C@H](C(=O)NC2CC(F)(F)C2)c2ccccc2Cl)c1` [Compound 190, (S)—N—((S)-1-(2-Chlorophenyl)-2-(3,3-difluorocyclobutylamino)-2-oxoethyl)-1-(4-cyanopyridin-2-yl)-N-(3-fluoro-5-((S)-methylsulfinyl)phenyl)-5-oxopyrrolidine-2-carboxamide] had a pIC50 greater than 7.00.
`N#Cc1ccnc(N2C(=O)CC[C@H]2C(=O)N(c2ccc3[nH]ccc3c2)[C@H](C(=O)NC2CC(F)(F)C2)c2ccccc2Cl)c1` [Compound 206, (S)—N—((S)-1-(2-Chlorophenyl)-2-((3,3-difluorocyclobutyl)amino)-2-oxoethyl)-1-(4-cyanopyridin-2-yl)-N-(1H-indol-5-yl)-5-oxopyrrolidine-2-carboxamide] gave a pIC50 greater than 7.00.
